# Results as given in patent US20070274947A1, “Antisense Oligonucleotides Directed to Ribonucleotide Reductase R1 and Uses Thereof in the Treatment of Cancer” (priority 2003, published 2007).
# “Also recorded” adds a separate entry of the source. Read-outs that look alike come from different tables or passages of the source.
# How the values were obtained:
# [1] = Tissue distribution after continuous infusion in rats; type: in vivo; settings: rat
# [2] = Repeat dose 14-day toxicity study in monkeys (Part 1); settings: monkey
# [3] = cynomolgus monkey, in vivo
# [4] = system: C8161 human metastatic melanoma cells; assay: Experimental metastasis of C8161 cells, in vivo treatment (lung nodules, SCID mice); settings: 10 mg/kg/48 hr from day 2, 5-7 weeks
# Method: B. C8161 human metastatic melanoma cells were seeded into 100 mm tissue culture dishes at a density of 2×10^6 and incubated overnight at 37° C. in α-MBM medium supplemented with 10% FBS. The cells were trypsinized, collected by centrifugation and aliquots were removed from the suspension to determine the cell viability using trypan blue exclusion test. Approximately, 1×10^5 cells suspended in 0.1 ml of PBS were injected into the tail veins of 6-8 week old female SCID mice. Treatment with saline or 10 mg/kg/48 hr SEQ ID NO:1 or SEQ ID NO:1-SCR (scrambled control) was initiated after 2 days. Estimates of the number of lung nodules were made 5-7 weeks later, after excised lungs from individual mice were stained with picric acid dye solution (75% picric acid, 20% formaldehyde, 5% glacial acetic acid), see FIG. 12B. The bars represent the mean number of nodules per mouse with standard error.
# [5] = Repeat dose 21-day toxicity study in monkeys (Part 2); settings: monkey; 21-day infusion, 50 mg/kg/day
# [6] = Acute intravenous toxicity study in rats (24-hour infusion); type: in vivo, Sprague-Dawley rats; settings: rat
# From the text: The purpose of this study was to assess the adverse effects of SEQ ID NO:1 when administered as a single intravenous dose to Sprague-Dawley rats. […] Parameters assessed included mortality, clinical observations, body weight and food consumption assessment, clinical pathology and urinalysis measurements, and gross examination at necropsy.
# [7] = cynomolgus monkey, in vivo; remark: listed apart in the source
# [8] = 14-day continuous intravenous infusion toxicity study in the rat; type: in vivo, Sprague Dawley rats
# A2058 (melanoma) = assay: Colony forming ability, A2058; type: cell-based, human; settings: 0.2 μM antisense oligonucleotide/lipofectin, 4 hours
# Method: (§1) The effect of SEQ ID NO:1 on the colony forming ability were evaluated in the following human tumor cell lines:
# (§2) Tumor cells were washed in 5 ml of phosphate buffered saline, pH 7.2, prior to 0.2 μM antisense oligonucleotide/lipofectin treatment for 4 hours. The medium was removed and the cells were gently washed with 5 ml of growth medium. The cells were then cultured in growth medium for seven to ten days. Surviving colonies were visualized by methylene blue staining and colonies of 50 or more cells were scored (Choy et al., 1988 and Huang and Wright, 1994). Results are summarized from 4 to 8 trials for each tumor cell line.
# [9] = rat
# Method: Ten rats/sex/group were administered SEQ ID NO:1 at doses of 0 (control), 2, 10, or 50 mg/kg/day. Animals in the control group received the vehicle article, PBS. […] An additional 5 rats/group were included in the control and high dose group as recovery animals, and were allowed a 14-day observation period following the treatment period. Parameters assessed during the study include mortality, clinical signs, body weights, food consumption, opthalmoscopic examination, clinical pathology assessment (hematology, coagulation, clinical chemistry, and urinalysis). Terminal procedures included a complete necropsy of each animal, and histopathologic evaluation of selected tissues for animals in the control and high dose groups. For toxicokinetic evaluations, an additional 8 rats/sex were included in the high dose groups. Serial and terminal blood samples were withdrawn from satellite animals at selected time points during infusion and after the end of infusion.
# Hep G2 (liver) = assay: Colony forming ability, Hep G2; type: cell-based, human; settings: 0.2 μM antisense oligonucleotide/lipofectin, 4 hours
# Method: as §1, §2
# R1 mRNA = assay: Northern blot of R1 mRNA in HT-29 cells; type: cell-based, human; settings: 0.2 μM, four hours with Lipofectin, 16 hours recovery
# Method: Total RNA was isolated using TRIzol reagent (GIBCO BRL) after cells were treated with 0.2 μM SEQ ID NO:1 for four hours in the presence of cationic lipid (Lipofectin reagent, GIBCO BRL), washed with PBS, and incubated for 16 hours to recover in normal medium containing 10% FBS. Northern blot analysis was performed as previously described (Hurta and Wright, 1995). RNA was subjected to electrophoresis through 1% formaldehyde agarose gels followed by transfer to nylon membranes. Blots were hybridized in the presence of a R1 fragment (McClarty et al, 1987). Glyceraldehyde-3-phosphate dehydrogenase (GAPDH) mRNA levels were simultaneously probed for RNA loading controls.
# [10] = system: SIHA human cervical cancer cells; assay: SIHA cervical tumor growth in SCID mice; type: in vivo
# Method: SIHA human cervical cancer cells (1×10^7 cells in 100 μl of PBS) were subcutaneously injected into the right flank of 6-7 week old female SCID mice. After the size of tumor reached an approximate volume of 100 mm^3, 7 days post tumor cell injection, SEQ ID NO:1 was administered by bolus infusion into the tail vein every other day at 10 mg/kg. Control animals received saline alone for the same period. Treatments lasted for 16 days thereafter. Antitumor activities were estimated by the inhibition of tumor volume (FIG. 11A), which was measured with a caliper on five different occasions over 16-day period. Each point represents mean tumor volume calculated from 10 animals per experimental group.
# human tumors = assay: In vivo primary pharmacology, human tumors in mouse models
substance,measurement,setting,value
5′-CTCTAGCGTCTTAAAGCCGA-3′ (CTCTAGCGTCTTAAAGCCGA; chemistry not given here) [SEQ ID NO:1],levels in the brain,[1],very low or below the limits of detection; also recorded: undetectable
same,"tissue concentrations, rank order",[1],"kidney>liver>spleen>lymph node (monkey)>lung (monkey)>heart; also recorded: highest in the kidney followed by the liver, spleen and heart"
same,"deaths, clinical signs, appetite, ophthalmology, cardiology, hematology, organ weights",[2]; 14-day infusion up to 40 mg/kg/day,"no deaths, no treatment-related clinical signs, effects on appetite, ophthalmology effects, cardiology, hematology effects, or changes in organ weights"
same,toxicity,[2]; continuously for 14 days at 10 mg/kg/day (123 mg/m^2/day),Minimal and reversible toxicity
same,elimination t1/2,[3],2.2 to 2.5 h
same,plasma Cl,[3],0.0457 to 0.1167 L/h/kg
same,time to Css,[3],consistently achieved at the first or second blood collection timepoint
same,number of lung nodules,[4],no visible lung nodules
same,mortality,[5],one high dose animal was sacrificed on Day 19 for ethical reasons
same,toxicological effects,"[6]; 24-hour continuous i.v. infusion, 40 mg/kg/day",toxicological effects were not observed
same,test article related effects,"[6]; 24-hour continuous i.v. infusion, 60, 80 and 90 mg/kg",some test article related effects were found
same,clinical parameters in mid and low dose animals,[7],Transient changes
same,complement split product Bb,[7],appeared to increase
same,activated partial thromboplastin time (APTT),[7]; 40 mg/kg/day,reversible increase
same,sex effect on adverse effects,[8],more pronounced in males than females
same,treatment-related effects in the high dose group,"[8]; 50 mg/kg/day (reduced to 40 mg/kg/day), 14-day infusion","severe adverse clinical signs and mortality; also recorded: high morbidity and mortality, reduced body weights and reduced food consumption"
same,clinical pathology results,"[8]; 2, 10, 50 mg/kg/day, 14 days","dose-dependent anemia, thrombocytopenia, coagulopathic selectivity for APTT, and liver and kidney toxicity in both sexes"
same,pathological findings,"[8]; 2, 10, 50 mg/kg/day, 14 days","major treatment-related changes in numerous tissues and organs of the high dose animals, in most tissues and organs of the mid dose animals; and sporadically in the evaluated tissues and organs of the low dose animals"
same,toxicity,[8]; continuously for 14 days at 10 mg/kg/day (59 mg/m^2/day),Severe toxicity
same,inhibition in colony forming ability,A2058 (melanoma),greater than 60%
same,sex difference in plasma concentrations during infusion,[9],no apparent differences in the levels between males and females
same,mean Cmax,[9]; in vivo,40.4 µg/mL
same,median time at which Cmax occurred,[9]; in vivo,96 h
same,time to steady state of continuous infusion,[9]; 50 (40) mg/kg/day continuous infusion,approximately 24 h
same,elimination t1/2,"[9]; after 14-day continuous infusion, high dose",8.6 h
same,steady state level (Css) in plasma,"[9]; continuous i.v. infusion 50 mg/kg/day (reduced to 40 mg/kg/day), 14 days",34.8 µg/mL
same,inhibition in colony forming ability,Hep G2 (liver),greater than 60%
same,R1 mRNA level,R1 mRNA,specifically decreases R1 mRNA; also recorded: significant decrease; also recorded: decreased R1 mRNA levels
same,inhibition of tumor volume,"[10]; 10 mg/kg i.v. every other day, 16 days, vs saline",strong inhibitory effects
same,weight of excised tumors,[10]; end of treatments,strong antitumor effect
same,efficacy in tumor xenograft experiments,human tumors; SCID mice that are T and B cell deficient,highly effective
same,growth of human tumors in mouse models,human tumors; doses of 1.0 to 10 mg/kg/day,significantly inhibited the growth
